According to US12245993B2, “Vitamin K2 microcapsule, preparation method thereof and use thereof in manufacture of medicament for preventing or treating cardiovascular and cerebrovascular diseases” (Xiamen Kingdomway Biotech. Co., Ltd., priority 2020, dated 2025):

Test: Determination of stability of vitamin K2 microcapsules (light, oxygen, high temperature)
Assay type: physicochemical
Protocol: (2) Test Method The samples and the reference samples were respectively put into sealed colorless and transparent vials, and placed under the conditions of 4500Lx light intensity irradiation, oxygen filling (25° C.), and stored at 60° C. (incubator) for 15 days, respectively; and they were subjected to sampling on Day 0, Day 5, Day 10, Day 15, and VK2 contents thereof were determined by USP method. The effects of light, oxygen, and temperature conditions on the labeled content (%) of VK2 were investigated.

Vitamin K2 [Reference sample 4]
Labeled content of VK2 (%) (60° C. (incubator), Day 0): 100.0%
Labeled content of VK2 (%) (60° C. (incubator), Day 5): 96.2%
Labeled content of VK2 (%) (60° C. (incubator), Day 10): 94.8%
Labeled content of VK2 (%) (60° C. (incubator), Day 15): 90.4%
Labeled content of VK2 (%) (4500 Lx illumination, Day 0): 100.0%
Labeled content of VK2 (%) (4500 Lx illumination, Day 5): 89.2%
Labeled content of VK2 (%) (4500 Lx illumination, Day 10): 74.3%
Labeled content of VK2 (%) (4500 Lx illumination, Day 15): 60.3%
Labeled content of VK2 (%) (Oxygen filling (25° C.), Day 0): 100.0%
Labeled content of VK2 (%) (Oxygen filling (25° C.), Day 5): 93.5%
Labeled content of VK2 (%) (Oxygen filling (25° C.), Day 10): 89.4%
Labeled content of VK2 (%) (Oxygen filling (25° C.), Day 15): 81.2%
